Laboratory results: patent US9198420B2, “Rodenticidal norbormide analogues” (priority 2012, dated 2015)

System: rat caudal artery
Test: Rat caudal artery ring contractile force (vasoconstrictory activity)
Design: species or system rat (male Wistar)
Description: Male Wistar rats (150-250 g) were obtained from Charles River Italia (Milano, Italy) and killed by decapitation. Ventral caudal artery was isolated, placed in Tyrode solution at room temperature and cleaned of extraneous fatty and connective tissue under a dissection microscope. All vessels were cut into rings 2 mm long, mounted on a custom-built plexiglass support by means of two intraluminal tungsten wires and placed in 20 mL double-jacketed organ baths filled with Tyrode solution of the following composition (mM): NaCl 125, KCl 5, CaCl2 2.7, MgSO4 1, KH2PO4 1.2, NaHCO3 25 and glucose 11, maintained at 37° C., pH 7.35, bubbled with 95% O2 and […]. The endothelium was removed by gently rubbing the lumen of the rings with a very thin rough-surfaced tungsten wire (caudal artery). The mechanical activity of the rings was detected by means of an isometric force transducer (Ugo Basile, Comerio, Italy) coupled to a pen recorder (Ugo Basile, Comerio, Italy). Rings were passively stretched to impose a resting tension (2 g) and were allowed to equilibrate for 60 min. After equilibration, each ring was repeatedly simulated with both KCl (90 mM) and phenylephrine (10 μM) until reproducible responses were obtained. To verify the absence of the endothelium, rings contracted with 1 μM phenylephrine were exposed to […] carbamylcholine. […] Each compound was tested for the vasoconstrictor activity at a concentration of 50 μM, which has been previously reported to be the one evoking the maximal response to norbormide. The contractile responses to the compounds were expressed as percent of the 90 mM KCl response.

[1] = Table 7, compounds of formula (V)

Structure (SMILES) | Vasoconstriction: maximum contractile effect as a % of 90 mM KCl contraction (Table 1, compound at 50 μM) | other results
CCCCCCCCCCCC(=O)OCN1C(=O)C2C3C=C(C(O)(c4ccccc4)c4ccccn4)C(C3=C(c3ccccc3)c3ccccn3)C2C1=O (stereo not drawn) [Compound 11, N-Dodecanoyloxymethyl-5-(α-hydroxy-α-2-pyridylbenzyl)-7-(α-2-pyridylbenzylidene)-5-norbornene-2,3-dicarboximide] | – | Emax (Table 1, read-out: Vasoconstriction: maximum contractile effect as a % of 90 mM KCl contraction): 0%; Vasoconstriction: maximum contractile effect as a % of 90 mM KCl contraction (Table 4, pre-cleavage, n = 3): 0%
CC(O)CN1C(=O)C2C3C=C(C(O)(c4ccccc4)c4ccccn4)C(C3=C(c3ccccc3)c3ccccn3)C2C1=O (stereo not drawn) [Compound 103, N-2′-Hydroxypropyl-5-(α-hydroxy-α-2-pyridylbenzyl)-7-(α-2-pyridylbenzylidene)-5-norbornene-2,3-dicarboximide] | – | Vasoconstriction: maximum contractile effect as a % of 90 mM KCl contraction [1]: 67%; Vasoconstriction: maximum contractile effect as a % of 90 mM KCl contraction (n = 3, Table 8): 67%
O=C1C2C3C=C(C(O)(c4ccccc4)c4ccccn4)C(C3=C(c3ccccc3)c3ccccn3)C2C(=O)N1CCCCO (stereo not drawn) [Compound 105, N-4′-Hydroxybutyl-5-(α-hydroxy-α-2-pyridylbenzyl)-7-(α-2-pyridylbenzylidene)-5-norbornene-2,3-dicarboximide] | – | Vasoconstriction: maximum contractile effect as a % of 90 mM KCl contraction [1]: 100%; Vasoconstriction: maximum contractile effect as a % of 90 mM KCl contraction (n = 3, Table 8): 100%
CC(C)(C)C(=O)OCCN1C(=O)C2C3C=C(C(O)(c4ccccc4)c4ccccn4)C(C3=C(c3ccccc3)c3ccccn3)C2C1=O (stereo not drawn) [Compound 109, 5-(α-Hydroxy-α-2-pyridylbenzyl)-N-2′-pivaloyloxyethyl-7-(α-2-pyridylbenzylidene)-5-norbornene-2,3-dicarboximide] | ≧132% | –
CCCC(=O)OCCN1C(=O)C2C3C=C(C(O)(c4ccccc4)c4ccccn4)C(C3=C(c3ccccc3)c3ccccn3)C2C1=O (stereo not drawn) [Compound 110, N-2′-Butanoyloxyethyl-5-(α-hydroxy-α-2-pyridylbenzyl)-7-(α-2-pyridylbenzylidene)-5-norbornene-2,3-dicarboximide] | ≧132% | –
O=C(OCCN1C(=O)C2C3C=C(C(O)(c4ccccc4)c4ccccn4)C(C3=C(c3ccccc3)c3ccccn3)C2C1=O)c1ccccc1 (stereo not drawn) [Compound 113, N-2′-Benzoyloxyethyl-5-(α-hydroxy-α-2-pyridylbenzyl)-7-(α-2-pyridylbenzylidene)-5-norbornene-2,3-dicarboximide] | ≧132% | –
COc1ccccc1C(=O)OCCN1C(=O)C2C3C=C(C(O)(c4ccccc4)c4ccccn4)C(C3=C(c3ccccc3)c3ccccn3)C2C1=O (stereo not drawn) [Compound 114, 5-(α-Hydroxy-α-2-pyridylbenzyl)-N-2′-o-methoxybenzoyloxyethyl-7-(α-2-pyridylbenzylidene)-5-norbornene-2,3-dicarboximide] | ≧132% | –
COc1cccc(C(=O)OCCN2C(=O)C3C4C=C(C(O)(c5ccccc5)c5ccccn5)C(C4=C(c4ccccc4)c4ccccn4)C3C2=O)c1 (stereo not drawn) [Compound 115, 5-(α-Hydroxy-α-2-pyridylbenzyl)-N-2′-m-methoxybenzoyloxyethyl-7-(α-2-pyridylbenzylidene)-5-norbornene-2,3-dicarboximide] | 52% | –
COc1ccc(C(=O)OCCN2C(=O)C3C4C=C(C(O)(c5ccccc5)c5ccccn5)C(C4=C(c4ccccc4)c4ccccn4)C3C2=O)cc1 (stereo not drawn) [Compound 116, 5-(α-Hydroxy-α-2-pyridylbenzyl)-N-2′-p-methoxybenzoyloxyethyl-7-(α-2-pyridylbenzylidene)-5-norbornene-2,3-dicarboximide] | ≧132% | –
O=C(Cc1ccccc1)OCCN1C(=O)C2C3C=C(C(O)(c4ccccc4)c4ccccn4)C(C3=C(c3ccccc3)c3ccccn3)C2C1=O (stereo not drawn) [Compound 117, 5-(α-Hydroxy-α-2-pyridylbenzyl)-N-2′-phenylacetyloxyethyl-7-(α-2-pyridylbenzylidene)-5-norbornene-2,3-dicarboximide] | ≧132% | –
